Data reported in patent US11045447B2, “Methods for inducing synaptogenesis with synaptic growth factor activating compounds” ([…], INC., priority 2018, dated 2021).
Several values for one entry are separate records, joined by “and”; a condition that tells them apart may be missing. Equal entries are not always repeated. Entries after “also recorded” stand apart in the source; their conditions may differ.

Experiments:
Type in all cases: in vivo, human
[1] = tested on: patients with advanced Alzheimer's disease; test: ADCS-ADL-SIV (secondary efficacy endpoint) in the same trial
Description: (§1) Adults aged 55-85 with cognitive deficits present for at least 2 years, MMSE-2 of 4-15, inclusive, and a diagnosis of Alzheimer's dementia were randomly assigned to receive blinded intravenous infusions of bryostatin 24 μg or matching placebo at weeks 0 and 1. The 24 μg and 48 μg doses during the first two weeks of the 20 and 40 μg protocols respectively were considered to be “loading” doses thought to be beneficial from prior experience with Compassionate Use trial patients. Nelson et al., Alzheimers Dis. 2017 58: 521-535. In one arm, the two 24 μg doses were followed by 20 μg doses at weeks 5, 7, 9 and 11 with the Severe Impairment Battery (SIB) measured at baseline and weeks 5, 9, 13, and 15. In a second arm, the two 48 μg doses at weeks 0 and 1 were followed by 40 μg doses at weeks 5, 7, 9, and 11 with the SIB measured at baseline and weeks 5, 9, 13, and 15. The subjects were stratified by MMSE-2 in two strata: Stratum 1 (4-9) and Stratum 2 (10-15). The first primary endpoint was safety and tolerability, assessed by treatment emergent adverse events (TEAEs) with a sample size of 150 subjects randomized 1:1:1. Although efficacy was the secondary measure, the primary efficacy endpoint was SIB improvement at week 13 evaluated using a mixed model for repeated measures. A secondary efficacy endpoint was ADCS-ADL Sev. The primary safety population included all subjects who received at least 1 dose of study drug, and efficacy was evaluated in a modified intent to treat (mITT) population that received at least 1 dose of study drug and had at least one treatment evaluation. Efficacy was evaluated both as a primary end-point in the modified intent-to-treat (mITT) population and also as a primary end point in a Completers population that included all patients that completed the entire protocols as described above.

[2] = tested on: patients with advanced Alzheimer's disease; test: Safety and tolerability (treatment emergent adverse events) in the same trial; conditions: 40 μg iv, 12 weeks
Description: Adults aged 55-85 with cognitive deficits present for at least 2 years, MMSE-2 of 4-15, inclusive, and a diagnosis of Alzheimer's dementia were randomly assigned to receive blinded intravenous infusions of bryostatin 24 μg or matching placebo at weeks 0 and 1. The 24 μg and 48 μg doses during the first two weeks of the 20 and 40 μg protocols respectively were considered to be “loading” doses thought to be beneficial from prior experience with Compassionate Use trial patients. Nelson et al., Alzheimers Dis. 2017 58: 521-535. In one arm, the two 24 μg doses were followed by 20 μg doses at weeks 5, 7, 9 and 11 with the Severe Impairment Battery (SIB) measured at baseline and weeks 5, 9, 13, and 15. In a second arm, the two 48 μg doses at weeks 0 and 1 were followed by 40 μg doses at weeks 5, 7, 9, and 11 with the SIB measured at baseline and weeks 5, 9, 13, and 15. The subjects were stratified by MMSE-2 in two strata: Stratum 1 (4-9) and Stratum 2 (10-15). The first primary endpoint was safety and tolerability, assessed by treatment emergent adverse events (TEAEs) with a sample size of 150 subjects randomized 1:1:1. Although efficacy was the secondary measure, the primary efficacy endpoint was SIB improvement at week 13 evaluated using a mixed model for repeated measures. A secondary efficacy endpoint was ADCS-ADL Sev. […]

[3] = tested on: patients with advanced Alzheimer's disease; test: Severe Impairment Battery (SIB) in double-blind, randomized, placebo-controlled trial; design: key to SIB Total LS Mean change from baseline (MMRM) / SIB Total LS Mean change (MMRM with memantine covariate) / SIB Delta from baseline, Mean (unadjusted): change from baseline in SIB total score; low scores = greater impairment; conditions: for SIB Total Difference vs. Placebo (MMRM) / SIB Total LS Mean change from baseline (MMRM): 20 μg iv; for SIB Delta from baseline, Mean (unadjusted): Low dose (20)
Description: In a double-blind, randomized, placebo-controlled trial, bryostatin was administered by intravenous infusion (˜45 minutes) to patients with advanced Alzheimer's disease for 12 weeks at doses of 20 or 40 μg. Randomization was stratified at baseline by severe (MMSE-2, 4-9) and moderate (MMSE-2, 10-15) dementia, wherein MMSE-2 refers to Mini-Mental State Examination, version 2. The MMSE or Folstein test is a 30-point questionnaire that is used extensively in clinical and research settings to measure cognitive impairment. Low scores indicate greater impairment. Version 2 of the MMSE was published in 2010, expanding the original questionnaire's usefulness in populations with milder forms of cognitive impairment. […] Importantly, this cognitive improvement persisted and increased 30 days after all bryostatin dosing had been completed.
as §1
The SIB efficacy measurement at 30 days (week 15) post dosing—after all dosing had been completed (last dose administered at week 11)—was a pre-specified exploratory endpoint. Week 15 results were only included for subjects who were not re-randomized. The mixed model assumes missing at random, but order of enrollment in the trial was not random. Since order of enrollment was not random, the assumption of missing at random is not met. For this reason, only including week 15 for those who were not re-randomized is an appropriate way to estimate week 15 results, but not an appropriate way to estimate results at the earlier visits. For this reason, estimates up through week 13 are from a mixed model that only included data through week 13 and the week 15 estimates are from a separate model. Results were generated using a mixed model with repeated measures predicting change from baseline in SIB Total Score as the response variable and using baseline score, baseline MMSE strata, treatment, visit (categorical), and visit (treatment) as predictors. […]

[4] = Week 15 (30 days post dosing), Completer
[5] = Week 15 (30 days post dosing), FAS
[6] = 20 μg, Week 5, Completer, With Memantine
[7] = 20 μg, Week 5, Completer, Without Memantine
[8] = 20 μg, Week 5, FAS, With Memantine
[9] = 20 μg, Week 5, FAS, Without Memantine
[10] = 20 μg, Week 9, Completer, With Memantine
[11] = 20 μg, Week 9, Completer, Without Memantine
[12] = 20 μg, Week 9, FAS, With Memantine
[13] = 20 μg, Week 9, FAS, Without Memantine
[14] = 20 μg, Week 13, Completer, With Memantine
[15] = 20 μg, Week 13, Completer, Without Memantine
[16] = 20 μg, Week 13, FAS, With Memantine
[17] = 20 μg, Week 13, FAS, Without Memantine
[18] = 20 μg, Week 15, Completer, With Memantine
[19] = 20 μg, Week 15, Completer, Without Memantine
[20] = 20 μg, Week 15, FAS, With Memantine
[21] = 20 μg, Week 15, FAS, Without Memantine

Structure (SMILES): CCC/C=C/C=C/C(=O)O[C@H]1/C(=C/C(=O)OC)C[C@H]2C[C@H]([C@@H](C)O)OC(=O)C[C@H](O)C[C@@H]3C[C@H](OC(C)=O)C(C)(C)[C@](O)(C[C@@H]4C/C(=C/C(=O)OC)C[C@H](/C=C/C(C)(C)[C@]1(O)O2)O4)O3 [Bryostatin, bryostatin-1]
- ADCS-ADL, subgroups with and without memantine as background SOC therapy (in words) ([1]; 20 μg): not significantly different above placebo
- ADCS-ADL difference from placebo ([1]; 20 μg, completers group): 1.6
- ADCS-ADL difference from placebo ([1]; 20 μg, mITT group): 1.4
- ADCS-ADL efficacy (in words) ([1]; 40 μg dose): significant for the 20 μg but not the 40 μg dose
- Safety results [2]: more adverse events
- SIB versus baseline and placebo (in words) ([3]; 20 μg dose, throughout the 13-week trial): sustained improvement in SIB
- SIB Total Difference vs. Placebo (MMRM) ([3]; Week 5, Completer): 4.00
- SIB Total LS Mean change from baseline (MMRM) ([3]; Week 5, Completer): 1.67
- SIB Total Difference vs. Placebo (MMRM) ([3]; Week 5, FAS): 2.96
- SIB Total LS Mean change from baseline (MMRM) ([3]; Week 5, FAS): 1.18
- SIB Total Difference vs. Placebo (MMRM) ([3]; Week 9, Completer): 1.85
- SIB Total LS Mean change from baseline (MMRM) ([3]; Week 9, Completer): 1.28
- SIB Total Difference vs. Placebo (MMRM) ([3]; Week 9, FAS): 1.03
- SIB Total LS Mean change from baseline (MMRM) ([3]; Week 9, FAS): 0.94
- SIB Total Difference vs. Placebo (MMRM) ([3]; Week 13, Completer): 2.63
- SIB Total LS Mean change from baseline (MMRM) ([3]; Week 13, Completer): 1.51
- SIB Total Difference vs. Placebo (MMRM) ([3]; Week 13, Completer, listed as bryostatin): 2.6
- SIB Total Difference vs. Placebo (MMRM) ([3]; Week 13, FAS): 1.94
- SIB Total LS Mean change from baseline (MMRM) ([3]; Week 13, FAS): 1.16
- SIB Total Difference vs. Placebo (MMRM) [3, 4]: 4.09
- SIB Total LS Mean change from baseline (MMRM) [3, 4]: 1.96
- SIB Total Difference vs. Placebo (MMRM) ([3]; Week 15 (30 days post dosing), Completer, listed as bryostatin): 4.0 and 4.09
- SIB Total Difference vs. Placebo (MMRM) [3, 5]: 3.59
- SIB Total LS Mean change from baseline (MMRM) [3, 5]: 1.77
- SIB Total Difference vs. Placebo (MMRM with memantine covariate) [3, 6]: 2.94
- SIB Total LS Mean change (MMRM with memantine covariate) [3, 6]: 0.61
- SIB Total Difference vs. Placebo (MMRM with memantine covariate) [3, 7]: 5.38
- SIB Total LS Mean change (MMRM with memantine covariate) [3, 7]: 3.22
- SIB Total Difference vs. Placebo (MMRM with memantine covariate) [3, 8]: 1.96
- SIB Total LS Mean change (MMRM with memantine covariate) [3, 8]: 0.26
- SIB Total Difference vs. Placebo (MMRM with memantine covariate) [3, 9]: 4.48
- SIB Total LS Mean change (MMRM with memantine covariate) [3, 9]: 2.74
- SIB Total Difference vs. Placebo (MMRM with memantine covariate) [3, 10]: 0.90
- SIB Total LS Mean change (MMRM with memantine covariate) [3, 10]: −0.16
- SIB Total Difference vs. Placebo (MMRM with memantine covariate) [3, 11]: 2.66
- SIB Total LS Mean change (MMRM with memantine covariate) [3, 11]: 3.34
- SIB Total Difference vs. Placebo (MMRM with memantine covariate) [3, 12]: 0.09
- SIB Total LS Mean change (MMRM with memantine covariate) [3, 12]: −0.33
- SIB Total Difference vs. Placebo (MMRM with memantine covariate) [3, 13]: 2.08
- SIB Total LS Mean change (MMRM with memantine covariate) [3, 13]: 2.95
- SIB Total Difference vs. Placebo (MMRM with memantine covariate) [3, 14]: 0.56
- SIB Total LS Mean change (MMRM with memantine covariate) [3, 14]: −0.39
- SIB Total Difference vs. Placebo (MMRM with memantine covariate) [3, 15]: 5.53
- SIB Total LS Mean change (MMRM with memantine covariate) [3, 15]: 4.22
- SIB Total Difference vs. Placebo (MMRM with memantine covariate) [3, 16]: −0.14
- SIB Total LS Mean change (MMRM with memantine covariate) [3, 16]: −0.60
- SIB Total Difference vs. Placebo (MMRM with memantine covariate) [3, 17]: 5.11
- SIB Total LS Mean change (MMRM with memantine covariate) [3, 17]: 3.83
- SIB Total Difference vs. Placebo (MMRM with memantine covariate) [3, 18]: 1.45
- SIB Total LS Mean change (MMRM with memantine covariate) [3, 18]: −0.71
- SIB Total Difference vs. Placebo (MMRM with memantine covariate) [3, 19]: 6.36
- SIB Total LS Mean change (MMRM with memantine covariate) [3, 19]: 6.24
- SIB Total Difference vs. Placebo (MMRM with memantine covariate) [3, 20]: 0.79
- SIB Total LS Mean change (MMRM with memantine covariate) [3, 20]: −0.83
- SIB Total Difference vs. Placebo (MMRM with memantine covariate) [3, 21]: 5.93
- SIB Total LS Mean change (MMRM with memantine covariate) [3, 21]: 5.88
- Mean slope of SIB over time, Weighted Slope ([3]; 20 μg, weighted by number of non-zero SIB scores, second column group (memantine exposed, stratum not given)): −0.099
- SIB versus baseline and placebo (in words) ([3]; 40 μg dose): lack of efficacy; also recorded: no SIB improvement
- SIB Delta from baseline, Mean (unadjusted) ([3]; Ave of Week 13 and 15, Memantine Exposed Patients, FAS): −0.727
- SIB Delta from baseline, Mean (unadjusted) ([3]; Ave of Week 13 and 15, Memantine Treatment-Naïve Patients, FAS): 5.406
- SIB Delta from baseline, Mean (unadjusted) ([3]; Week 5, Memantine Exposed Patients, FAS): 0.077
- SIB Delta from baseline, Mean (unadjusted) ([3]; Week 5, Memantine Treatment-Naïve Patients, FAS): 3.444
- SIB Delta from baseline, Mean (unadjusted) ([3]; Week 9, Memantine Exposed Patients, FAS): −0.087
- SIB Delta from baseline, Mean (unadjusted) ([3]; Week 9, Memantine Treatment-Naïve Patients, FAS): 3.467
- SIB Delta from baseline, Mean (unadjusted) ([3]; Week 13, Memantine Exposed Patients, FAS): −0.545
- SIB Delta from baseline, Mean (unadjusted) ([3]; Week 13, Memantine Treatment-Naïve Patients, FAS): 4.500
- Treatment effect on SIB at 13/15 weeks from baseline (ANCOVA coefficient, 20 μg vs placebo) ([3]; Memantine Exposed, adjusted for Base SIB, MMSE-2): −0.620
- Treatment effect on SIB at 13/15 weeks from baseline (ANCOVA coefficient, 20 μg vs placebo) ([3]; Memantine Exposed, adjusted for Baseline SIB): −0.531
- Treatment effect on SIB at 13/15 weeks from baseline (ANCOVA coefficient, 20 μg vs placebo) ([3]; Memantine Naïve, adjusted for Base SIB, MMSE-2): 5.923
- Treatment effect on SIB at 13/15 weeks from baseline (ANCOVA coefficient, 20 μg vs placebo) ([3]; Memantine Naïve, adjusted for Baseline SIB): 5.426
- SIB improvement (in words) ([3]; patients on memantine, week 13 or 15): no SIB improvement
